Reference: PubChem BioAssay (NCI)
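Assay format: 96-well plates, 48-hour exposure. At the GI50, growth is halved. TGI: total growth inhibition.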

Assays:
Assay in all cases: DTP human tumour cell line panel, 48 h
HS 578T breast = test system: HS 578T breast
PC-3 prostate = test system: PC-3 prostate
SK-MEL-5 melanoma = test system: SK-MEL-5 melanoma
786-0 renal = test system: 786-0 renal
UO-31 renal = test system: UO-31 renal
HOP-62 NSCLC = test system: HOP-62 NSCLC
MDA-MB-435 = test system: MDA-MB-435
ACHN renal = test system: ACHN renal
M14 melanoma = test system: M14 melanoma
LOX IMVI melanoma = test system: LOX IMVI melanoma
NCI/ADR-RES ovarian = test system: NCI/ADR-RES ovarian
SF-295 CNS = test system: SF-295 CNS
MCF7 breast = test system: MCF7 breast
OVCAR-8 ovarian = test system: OVCAR-8 ovarian
COLO 205 colon = test system: COLO 205 colon
HOP-92 NSCLC = test system: HOP-92 NSCLC
SF-268 CNS = test system: SF-268 CNS
SN12C renal = test system: SN12C renal
KM12 colon = test system: KM12 colon
T-47D breast = test system: T-47D breast
MDA-N = test system: MDA-N
HL-60(TB) leukemia = test system: HL-60(TB) leukemia
U251 CNS = test system: U251 CNS
RPMI-8226 leukemia = test system: RPMI-8226 leukemia
OVCAR-5 ovarian = test system: OVCAR-5 ovarian
UACC-62 melanoma = test system: UACC-62 melanoma
SNB-75 CNS = test system: SNB-75 CNS
HCT-15 colon = test system: HCT-15 colon
BT-549 breast = test system: BT-549 breast
NCI-H460 lung = test system: NCI-H460 lung
MOLT-4 leukemia = test system: MOLT-4 leukemia
HCT-116 colon = test system: HCT-116 colon
SF-539 CNS = test system: SF-539 CNS
SR leukemia = test system: SR leukemia
NCI-H522 lung = test system: NCI-H522 lung
CAKI-1 renal = test system: CAKI-1 renal
TK-10 renal = test system: TK-10 renal
SNB-19 CNS = test system: SNB-19 CNS
NCI-H226 lung = test system: NCI-H226 lung
A498 renal = test system: A498 renal
SK-MEL-28 melanoma = test system: SK-MEL-28 melanoma
UACC-257 melanoma = test system: UACC-257 melanoma
OVCAR-3 ovarian = test system: OVCAR-3 ovarian
IGROV1 ovarian = test system: IGROV1 ovarian
SW-620 colon = test system: SW-620 colon
HT29 colon = test system: HT29 colon
MDA-MB-231 breast = test system: MDA-MB-231 breast
NCI-H23 lung = test system: NCI-H23 lung
K-562 leukemia = test system: K-562 leukemia
RXF 393 renal = test system: RXF 393 renal
HCC-2998 colon = test system: HCC-2998 colon
SK-MEL-2 melanoma = test system: SK-MEL-2 melanoma
EKVX NSCLC = test system: EKVX NSCLC
A549 NSCLC = test system: A549 NSCLC
OVCAR-4 ovarian = test system: OVCAR-4 ovarian
DU-145 prostate = test system: DU-145 prostate

Molecule `FC(F)(F)c1nc2ccc(SSc3ccc4nc(C(F)(F)F)[nH]c4c3)cc2[nH]1` has a GI50 (HS 578T breast) greater than 100 µM, a TGI (HS 578T breast) greater than 100 µM and a TGI (PC-3 prostate) greater than 100 µM. The TGI (SK-MEL-5 melanoma) was greater than 100 µM, the TGI (786-0 renal) was greater than 100 µM and the TGI (UO-31 renal) was greater than 100 µM. For the same molecule, the TGI (HOP-62 NSCLC) was greater than 100 µM, the TGI (MDA-MB-435) was greater than 100 µM and the TGI (ACHN renal) was greater than 100 µM. For the same molecule, the TGI (M14 melanoma) was greater than 100 µM, the TGI (LOX IMVI melanoma) was greater than 100 µM and the GI50 (NCI/ADR-RES ovarian) was greater than 100 µM. The TGI (NCI/ADR-RES ovarian) was greater than 100 µM, the TGI (SF-295 CNS) was greater than 100 µM and the TGI (MCF7 breast) was greater than 100 µM. It also gave a TGI (OVCAR-8 ovarian) greater than 100 µM, a TGI (COLO 205 colon) greater than 100 µM and a GI50 (HOP-92 NSCLC) greater than 100 µM. The TGI (HOP-92 NSCLC) was greater than 100 µM, the GI50 (SF-268 CNS) was greater than 100 µM and the TGI (SF-268 CNS) was greater than 100 µM. The TGI (SN12C renal) was greater than 100 µM, the GI50 (KM12 colon) was greater than 100 µM and the TGI (KM12 colon) was greater than 100 µM. The TGI (T-47D breast) was greater than 100 µM, the TGI (MDA-N) was greater than 100 µM and the TGI (HL-60(TB) leukemia) was greater than 100 µM. For the same molecule, the TGI (U251 CNS) was greater than 100 µM, the TGI (RPMI-8226 leukemia) was 65 µM and the TGI (OVCAR-5 ovarian) was greater than 100 µM. The TGI (UACC-62 melanoma) was greater than 100 µM, the GI50 (SNB-75 CNS) was greater than 100 µM and the TGI (SNB-75 CNS) was greater than 100 µM. It also gave a TGI (HCT-15 colon) greater than 100 µM, a TGI (BT-549 breast) greater than 100 µM and a TGI (NCI-H460 lung) of 75.1 µM. The TGI (MOLT-4 leukemia) was greater than 100 µM, the GI50 (HCT-116 colon) was greater than 100 µM and the TGI (HCT-116 colon) was greater than 100 µM. It also gave a TGI (SF-539 CNS) greater than 100 µM, a TGI (SR leukemia) greater than 100 µM and a TGI (NCI-H522 lung) greater than 100 µM. It also gave a GI50 (CAKI-1 renal) greater than 100 µM, a TGI (CAKI-1 renal) greater than 100 µM and a TGI (TK-10 renal) greater than 100 µM. For the same molecule, the GI50 (SNB-19 CNS) was greater than 100 µM, the TGI (SNB-19 CNS) was greater than 100 µM and the GI50 (NCI-H226 lung) was greater than 100 µM. For the same molecule, the TGI (NCI-H226 lung) was greater than 100 µM, the GI50 (A498 renal) was greater than 100 µM and the TGI (A498 renal) was greater than 100 µM. It also gave a GI50 (SK-MEL-28 melanoma) greater than 100 µM, a TGI (SK-MEL-28 melanoma) greater than 100 µM and a TGI (UACC-257 melanoma) greater than 100 µM. The TGI (OVCAR-3 ovarian) was greater than 100 µM, the GI50 (IGROV1 ovarian) was greater than 100 µM and the TGI (IGROV1 ovarian) was greater than 100 µM. The TGI (SW-620 colon) was greater than 100 µM, the GI50 (HT29 colon) was greater than 100 µM and the TGI (HT29 colon) was greater than 100 µM. For the same molecule, the TGI (MDA-MB-231 breast) was 71.3 µM, the TGI (NCI-H23 lung) was greater than 100 µM and the TGI (K-562 leukemia) was greater than 100 µM. It also gave a GI50 (RXF 393 renal) greater than 100 µM, a TGI (RXF 393 renal) greater than 100 µM and a TGI (HCC-2998 colon) greater than 100 µM. For the same molecule, the GI50 (SK-MEL-2 melanoma) was greater than 100 µM, the TGI (SK-MEL-2 melanoma) was greater than 100 µM and the GI50 (EKVX NSCLC) was greater than 100 µM. It also gave a TGI (EKVX NSCLC) greater than 100 µM, a TGI (A549 NSCLC) greater than 100 µM and a TGI (OVCAR-4 ovarian) greater than 100 µM. It also gave a GI50 (DU-145 prostate) greater than 100 µM and a TGI (DU-145 prostate) greater than 100 µM.
